According to US20220110993A1, “COMPOSITIONS FOR TREATMENT OF JAW PAIN, TEMPOROMANDIBULAR JOINT AND MUSCLE DISORDER AND BRUXISM” (LAB-O Corp., priority 2020, published 2022):

Columns and labels:
[1] = cited from earlier work
[2] = test system: normal skin; experiment: Human Repeat Insult Patch Test (RIPT); type: in vivo; settings: RIPT positive control
Description: The objective of the study was to determine irritation and sensitization potential of the composition as a test material after repeated application to skin. Contact sensitization was measured by treatment emergent adverse events (TEAE5), reaction grade and investigator assessment of irritation and sensitization. An informed consent was obtained from each volunteer prior to initiating the study. The consent form described reasons for the study, possible adverse effects, associated risks and potential benefits of the treatment and their limits of liability. […] The present composition was tested under occlusive conditions and placed on an 8-millimeter aluminum Finn Chamber (Epitest Ltd. Oy, Tuusula, Finland) supported on Scanpor Tape (Norgesplaster A/S, Kristiansand, Norway). Alternatively, an 8-mm filter paper coated aluminum Finn Chamber AQUA can be supported on a thin flexible transparent polyurethane rectangular film coated on one side with a medical grade acrylic adhesive, consistent with adhesive used in state-of-the-art hypoallergenic surgical tapes or a 7 mm IQ-ULTRA closed cell system. Such a closed cell system is made of additive-free polyethylene plastic foam with a filter paper incorporated (supplied in units of 10 chambers on a hypoallergenic non-woven adhesive tape having a width of 52 mm and a length of 118 mm) or other equivalents. […] Test materials to be tested in an open patch were applied and rubbed directly onto the back of the subject. Approximately 0.02-0.05 mL (in case of liquids) and/or 0.02-0.05 gm (in case of solids) of the test material was used for the study. Liquid test material was dispensed on a 7.5 mm paper disk, which fit in the Finn Chamber. The following procedure was applied: • 1. Subjects were requested to bathe or wash as usual before arrival at the facility. • 2. […] Patches remained in place for 48 hours after the first application. • 4. Subjects were instructed not to remove the patches prior to their 48 hour scheduled visit. • 5. Thereafter, subjects were instructed to remove patches 24 hours after application for the remainder of the study. • 6. […] Prior to each reapplication, the test sites evaluated by trained laboratory personnel. • 8. Following a 10-14 day rest period a retest/challenge dose was applied once to a previously unexposed test site. Test sites were evaluated by trained laboratory personnel 48 and 96 hours after application. In the event of an adverse reaction, the area of erythema and edema were to be measured. Edema is estimated by the evaluation of the skin with respect to the contour of the unaffected normal skin. Subjects were instructed to report any delayed reactions that might occur after the final reading. […] Site discontinued • Dc: Subject discontinued voluntarily • DcI: Subject discontinued per Investigator

**Q.** With `CC(C)C1CC[C@@H](C)C[C@H]1O` (single isomer, unassigned; (-)) [Menthol crystals, (−)-menthol] as the compound, how does the “solubility in oil and alcohol” value [1] read?
**A.** soluble in both oil and alcohol

**Q.** For `CCCCCCCCCCCCOS(=O)(=O)[O-].[Na+]` [2.0% Sodium Lauryl Sulfate Solution, Sodium Lauryl Sulfate], which “subjects with a Grade 1 reaction” value ([2]; Grade 1: erythema) is on record?
**A.** 12 subjects

**Q.** What about the “subjects with a Grade 2 reaction” value ([2]; Grade 2: erythema and induration) of the same compound?
**A.** 4 subjects

**Q.** What about the “subjects with a Grade 3 reaction” value ([2]; Grade 3: erythema, induration and vesicles) of the same compound?
**A.** 1 subjects

**Q.** And the “subjects with a Grade 4 reaction” value ([2]; Grade 4: erythema, induration and bullae)?
**A.** 3 subjects

**Q.** And the “subjects with a delayed Grade 2 reaction” value ([2]; delayed reaction)?
**A.** 1 subjects
